# In patent publication US9206159B2, “Piperazine-piperidine compounds as hepatitis C virus inhibitors” (Theravance Biopharma R&D IP, LLC, priority 2012, dated 2015):
# Tested on: HCV genotype 1a replicon cell line
# Assay: HCV Genotype 1a Replicon Assay
# Type: cell-based, hepatitis C virus
# Settings: Hepatitis C virus, Huh7.5 cell background, NS3-specific protease activity in lysates, 48 or 72 hours, read-out: Genotype 1a (pEC50 class) (converted)
# Experimental: Assay 2: HCV Genotype 1a Replicon Assay
# The HCV genotype 1a replicon cell line was obtained from Apath LLC (APC89; Huh7.5 cell background). This subgenomic replicon contains the N-terminus of the HCV core protein fused to the neomycin-resistance selectable marker. The EMCV IRES lies downstream and drives expression of the non-structural proteins NS3-NS5B. Compound potencies were determined using the NS3-specific protease activity in lysates as a measurement of compound inhibition of replicon levels.
# Cells were grown at 37° C. in a 5% CO2 humidified incubator in DMEM (Invitrogen) with 10% FBS (HyClone), 1×NEAA (Invitrogen), 1× Pen-Strep (Invitrogen), and 850 μg/mL G418 (Invitrogen). On day 1 of the assay, cells were plated at 15,000 cells/well in black 96-well tissue culture plates (Costar) in 200 μL media lacking G418. Four hours later, once the cells had adhered, the media was removed and replaced with media (no G418) containing dose-responses of test compounds. Compounds were initially diluted in DMSO and then diluted another 200× in media to bring the final DMSO concentration down to 0.5%. The cells were incubated with test compounds for 48 or 72 hours. At the end of the incubation period, media and compound were removed from the plates.
# To determine the NS3-specific protease activity in lysates, the cells were lysed at room temperature in 50 μL/well of 50 mM Hepes pH 7.5, 150 mM NaCl, 15% Glycerol, 0.15% Triton X-100, 10 mM DTT for 20 minutes with shaking. 50 μL of an NS3/4a protease-specific FRET substrate (Anaspec RET SI Cat#22991) was then added to the wells at a final concentration of 15 μM. The plates were incubated at 37° C. for 20 minutes, which corresponds to a timepoint at which the protease activity is still in the linear phase. Protease activity was determined by measuring fluorescence (Excitation: 340 nm; Emission: 509 nm).
# To analyze the data, the fluorescence was plotted vs. the compound concentration, and EC50 values were determined from a 4-parameter robust fit model using GraphPad Prism software.
row,Structure (SMILES),EC50 [nM]
1,COC(=O)N[C@H](C(=O)N1CCC[C@H]1c1nc(-c2ccc(-c3ccc(NC(=O)N4CC5CCC(C4)N5C4CCN(C(=O)C5CC5)CC4)cc3OC(F)(F)F)cc2)c[nH]1)C(C)C [Example 8-1],1 to 10
2,COC(=O)N[C@H](C(=O)N1C[C@@H](OC)C[C@H]1c1nc(-c2ccc(-c3ccc(NC(=O)N4CCN(C5CCN(C(=O)C6CC6)CC5)CC4)cc3OC(F)(F)F)cc2)c[nH]1)C(C)C [Example 5-3],0.1 to 1
3,"COC(=O)N[C@H](C(=O)N1C[C@@H](C)C[C@H]1c1nc(-c2ccc(-c3cc(Cl)c(NC(=O)N4CCC(N5CCN(C(=O)C(C)(C)C)C[C@@H]5C)CC4)cc3OC(F)(F)F)cc2)c[nH]1)C(C)C [Example 12, [(S)-1-((2S,4S)-2-{4-[5′-Chloro-4′-({4-[(S)-4-(2,2-dimethyl-propionyl)-2-methyl-piperazin-1-yl]-piperidine-1-carbonyl}-amino)-2′-trifluoromethoxy-biphenyl-4-yl]-1H-imidazol-2-yl}-4-methyl-pyrrolidine-1-carbonyl)-2-methyl-propyl]-carbamic acid methyl ester]",0.1 to 1
4,COC(=O)N[C@H](C(=O)N1C[C@@H](C)C[C@H]1c1nc2c(ccc3cc(-c4ccc(NC(=O)N5CCN(C6CCN(C(=O)C(C)(C)C)CC6)CC5)cc4OC(F)(F)F)ccc32)[nH]1)C1CCOCC1 [Example 7-2],< 0.1
5,"COC(=O)N[C@H](C(=O)N1C[C@@H](C)C[C@H]1c1nc(-c2ccc(-c3ccc(NC(=O)N4CCN(C5CCN(C(=O)C(C)(C)C)CC5)CC4)cc3OC(F)(F)F)cc2)c(F)[nH]1)C(C)C [Example 8, [(S)-1-((2S,4S)-2-{4-[4′-({4-[1-(2,2-Dimethyl-propionyl)-piperidin-4-yl]-piperazine-1-carbonyl}-amino)-2′-trifluoromethoxy-biphenyl-4-yl]-5-fluoro-1H-imidazol-2-yl}-4-methyl-pyrrolidine-1-carbonyl)-2-methyl-propyl]-carbamic acid methyl ester]",< 0.1

# Same assay, conditions: Huh7.5 cell background, NS3-specific protease activity in lysates, 48 or 72 hours
row,Structure (SMILES),Genotype 1a (pEC50 class)
1,COC(=O)NC(C(=O)N1CCCC1c1nc(-c2ccc(-c3ccc(NC(=O)N4CCN(C5CCN(C(=O)C6CC6)CC5)C(C)C4)cc3OC(F)(F)F)cc2)c[nH]1)C(C)C (centres unmarked) [Example 1-40],B (B represents pEC50 between 8 and 9 (EC50 between 1 and 10 nM))
2,COC(=O)N[C@H](C(=O)N1C[C@@H](C)C[C@H]1c1nc(-c2ccc(-c3cc(Cl)c(NC(=O)N4CCC(N5CCN(C(=O)C(C)(C)C)CC5)CC4)cc3OC(F)(F)F)cc2)c[nH]1)C(C)C [Example 4-13],B (B represents pEC50 between 8 and 9 (EC50 between 1 and 10 nM))
3,COC(=O)N[C@H](C(=O)N1CCC[C@H]1c1nc(-c2ccc(-c3ccc(NC(=O)N4CCC(N5CCN(C(=O)[C@H]6CC6(C)C)[C@H](C)C5)CC4)cc3OC(F)(F)F)cc2)c[nH]1)C(C)C [Example 3-8],B (B represents pEC50 between 8 and 9 (EC50 between 1 and 10 nM))
4,COC(=O)N[C@H](C(=O)N1C[C@@H](C)C[C@H]1c1nc(-c2ccc(-c3cc(Cl)c(NC(=O)N4CCC(N5CCN(C(=O)[C@H]6CC6(C)C)C[C@H]5C)CC4)cc3OC(F)(F)F)cc2)c[nH]1)C(C)C [Example 4-17],"C (C represents pEC50 between and 9 and about 10, (EC50 between 1 nM and 0.1 nM))"
5,COC(=O)N[C@H](C(=O)N1CCC[C@H]1c1nc(-c2ccc(-c3ccc(NC(=O)N4CCN(C5CCN(C(=O)C6CC6)CC5)C[C@H]4C)cc3OC(F)(F)F)cc2)c[nH]1)C(C)C [Example 1-18],"C (C represents pEC50 between and 9 and about 10, (EC50 between 1 nM and 0.1 nM))"
6,COC(=O)N[C@H](C(=O)N1CCC(N2CCN(C(=O)Nc3ccc(-c4ccc(-c5c[nH]c([C@@H]6CCCN6C(=O)[C@@H](NC(=O)OC)C(C)C)n5)cc4)cc3)CC2)CC1)C(C)C [Example 1-6],A (A represents a pEC50 value between 6 and 8 (EC50 between 1 μM and 10 nM))
7,COC(=O)N[C@H](C(=O)N1C[C@@H](C)C[C@H]1c1nc(-c2ccc(-c3ccc(NC(=O)N4CCN(C5CCN(C(=O)C(C)(C)CO)CC5)CC4)cc3OC(F)(F)F)cc2)c[nH]1)C(C)C [Example 2-29],"C (C represents pEC50 between and 9 and about 10, (EC50 between 1 nM and 0.1 nM))"
8,CNC(=O)N1CCN(C2CCN(C(=O)Nc3cc(OC(F)(F)F)c(-c4ccc(-c5c[nH]c([C@@H]6C[C@H](C)CN6C(=O)[C@@H](NC(=O)OC)C(C)C)n5)cc4)cc3Cl)CC2)C[C@@H]1C [Example 4-4],B (B represents pEC50 between 8 and 9 (EC50 between 1 and 10 nM))
9,COC(=O)N[C@H](C(=O)N1C[C@@H](C)C[C@H]1c1nc(-c2ccc(-c3ccc(NC(=O)N4CCN(C5CCN(C(=O)[C@H]6CC6(C)C)CC5)CC4)cc3OC(F)(F)F)cc2)c(F)[nH]1)C(C)C [Example 10],D (D represents pEC50>10 (EC50<0.1 nM))
10,COC(=O)N[C@H](C(=O)N1C[C@@H](C)C[C@H]1c1nc2c(ccc3cc(-c4ccc(NC(=O)N5CCN(C6CCN(C(=O)[C@H]7CC7(C)C)CC6)CC5)cc4OC(F)(F)F)ccc32)[nH]1)C1CCOCC1 [Example 7-5],D (D represents pEC50>10 (EC50<0.1 nM))
11,COC(=O)N[C@H](C(=O)N1CCC[C@H]1c1nc(-c2ccc(-c3ccc(NC(=O)N4CCC(N5CCN(C(=O)C6CC6)CC5)CC4)cc3)cc2)c[nH]1)C(C)C [Example 3-3],A (A represents a pEC50 value between 6 and 8 (EC50 between 1 μM and 10 nM))
12,CNC(=O)N1CCC(N2CCN(C(=O)Nc3cc(OC(F)(F)F)c(-c4ccc(-c5c[nH]c([C@@H]6C[C@H](C)CN6C(=O)[C@@H](NC(=O)OC)C(C)C)n5)cc4)cc3Cl)CC2)CC1 [Example 2-7],"C (C represents pEC50 between and 9 and about 10, (EC50 between 1 nM and 0.1 nM))"
13,COC(=O)N[C@H](C(=O)N1CCC[C@H]1c1nc(-c2ccc(-c3ccc(NC(=O)N4CCN(C5CCN(C(=O)C6CC6)CC5)C[C@@H]4C)cc3OC(F)(F)F)cc2)c[nH]1)C(C)C [Example 1-41],B (B represents pEC50 between 8 and 9 (EC50 between 1 and 10 nM))
14,COC(=O)N[C@H](C(=O)N1C[C@@H](C)C[C@H]1c1nc(-c2ccc(-c3cc(F)c(NC(=O)N4CCC(N5CCN(C(=O)[C@H]6CC6(C)C)CC5)CC4)cc3OC(F)(F)F)cc2)c[nH]1)C(C)C [Example 4-8],"C (C represents pEC50 between and 9 and about 10, (EC50 between 1 nM and 0.1 nM))"
15,COC(=O)N[C@H](C(=O)N1CCC[C@H]1c1nc(-c2ccc(-c3ccc(NC(=O)N4CCC(N5CCN(C(=O)OC(C)(C)C)CC5)CC4)cc3)cc2)c[nH]1)C(C)C [Example 3-1],A (A represents a pEC50 value between 6 and 8 (EC50 between 1 μM and 10 nM))
16,COC(=O)N[C@H](C(=O)N1C[C@@H](C)C[C@H]1c1nc(-c2ccc(-c3cc(Cl)c(NC(=O)N4CCC(N5CCN(C(=O)C(C)(C)C)C[C@H]5C)CC4)cc3OC(F)(F)F)cc2)c[nH]1)C(C)C [Example 4-16],"C (C represents pEC50 between and 9 and about 10, (EC50 between 1 nM and 0.1 nM))"
17,COC(=O)N[C@H](C(=O)N1C[C@@H](C)C[C@H]1c1nc(-c2ccc(-c3cc(Cl)c(NC(=O)N4CCN(C5CCN(C(=O)[C@H]6CC6(C)C)CC5)CC4)cc3OC(F)(F)F)cc2)c[nH]1)C(C)C [Example 3],"C (C represents pEC50 between and 9 and about 10, (EC50 between 1 nM and 0.1 nM))"
18,COC(=O)N[C@H](C(=O)N1C[C@@H](C)C[C@H]1c1nc(-c2ccc(-c3ccc(NC(=O)N4CCN(C5CCN(C(=O)C6CC6(F)F)CC5)CC4)cc3OC(F)(F)F)cc2)c[nH]1)C(C)C (some centres unmarked) [Example 2-10],"C (C represents pEC50 between and 9 and about 10, (EC50 between 1 nM and 0.1 nM))"
